Measured values taken from patent US5025011A, “Fused pyridines active on the cardiovascular system” (SIMES, Societa Italiana Medicinali e Sintetici S.p.A., priority 1988, dated 1991).

What was measured:
[1] = molecular target: T1, mouse lung beta2 receptors (Mus musculus, UniProt P18762); experiment: beta-blocking activity: binding test towards beta2 lung receptors in mouse
T1 construct: beta2 lung receptors in mouse; from tissue; host or cells: mouse lung
Text: (§1) Moreover the beta-blocking activity has been tested with i binding tests both towards beta1 heart receptors and beta2 lung receptors in mouse according to methods described in J. Biol. Chem., 253, 5090, (1978) and Br. J. Pharmacol., 68, 57, (1980).

rabbit mesenteric artery = experiment: Calcium antagonist activity: antagonizing the effect of Ca++ on preparations of rabbit mesenteric artery in Krebs depolarizer; type: cell-based; details: Oryctolagus cuniculus, Ca++ submaximal concentration 3 mM
Experimental: Calcium antagonist activity of the compounds of formula I has been tested as capability of antagonizing the effect of Ca^++ submaximal concentrations (3 mM) on preparations of rabbit mesenteric artery in Krebs depolarizer, prepared according to Towart "J. Cardiovasc. Pharmacol." 4, 895, (1982).

[2] = molecular target: T2, mouse heart beta1 receptors (Mus musculus, UniProt P34971); experiment: beta-blocking activity: binding test towards beta1 heart receptors in mouse
T2 construct: beta1 heart receptors; from tissue; host or cells: mouse heart
T2 sequence (P34971 whole entry): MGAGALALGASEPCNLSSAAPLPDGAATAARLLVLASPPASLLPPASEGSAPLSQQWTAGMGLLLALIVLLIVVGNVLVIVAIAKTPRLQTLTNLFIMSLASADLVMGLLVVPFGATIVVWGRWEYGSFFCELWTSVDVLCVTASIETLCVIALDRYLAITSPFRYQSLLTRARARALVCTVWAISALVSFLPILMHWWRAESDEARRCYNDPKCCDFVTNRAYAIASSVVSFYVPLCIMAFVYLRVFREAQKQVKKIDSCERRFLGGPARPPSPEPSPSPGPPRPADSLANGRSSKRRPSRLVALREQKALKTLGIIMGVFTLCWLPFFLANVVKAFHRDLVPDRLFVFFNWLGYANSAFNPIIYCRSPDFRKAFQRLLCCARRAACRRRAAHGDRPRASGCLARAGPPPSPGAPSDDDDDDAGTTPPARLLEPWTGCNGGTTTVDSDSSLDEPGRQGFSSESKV
Text: as §1

T1 sequence (P18762 whole entry): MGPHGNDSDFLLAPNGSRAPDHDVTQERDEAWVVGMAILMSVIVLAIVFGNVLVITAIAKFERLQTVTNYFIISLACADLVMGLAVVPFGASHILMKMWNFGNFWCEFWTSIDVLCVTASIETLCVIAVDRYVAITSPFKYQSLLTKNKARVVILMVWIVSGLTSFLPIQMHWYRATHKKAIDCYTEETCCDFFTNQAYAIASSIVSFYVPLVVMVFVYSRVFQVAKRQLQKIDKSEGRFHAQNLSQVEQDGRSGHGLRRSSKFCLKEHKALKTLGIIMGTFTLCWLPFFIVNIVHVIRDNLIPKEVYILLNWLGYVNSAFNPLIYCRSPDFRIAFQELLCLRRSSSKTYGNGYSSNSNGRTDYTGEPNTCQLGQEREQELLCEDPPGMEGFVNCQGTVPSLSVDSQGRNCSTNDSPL

Ki [1]	IC50 (rabbit mesenteric artery)	Ki [2]	SMILES
287 nM	240 nM	345 nM	CCOC(=O)C1=C(C)Nc2cnn(CCNCC(O)COc3ccccc3OC)c(=O)c2C1c1cccc([N+](=O)[O-])c1 (stereo not drawn) [Compound A, Ethyl 2-methyl-4-(3-nitrophenyl)-5-oxo-6-(2-(2-hydroxy-3-(2-methoxyphenoxy)-propylamino)-ethyl)-1,4,5,6-tetrahydro-pyrido(2,3-d)pyridaxine-3-carboxylate]
71 nM	770 nM	142 nM	CCOC(=O)C1=C(C)Nc2cnn(CC(C)(C)NCC(O)COc3ccccc3OC)c(=O)c2C1c1cccc([N+](=O)[O-])c1 (stereo not drawn) [Compound B]
